# Where two headings read alike, the source gives them in different places.
# What was measured:
# [1] = Stability of aqueous solutions of etoposide prodrugs; assay type: physicochemical
# Method: For example, either AP alone or the antibody-enzyme conjugate, L6-AP, produced as described above (final AP concentration 5 µg/ml) were added to a solution of etoposide-4'-phosphate (0.1 mM) in Tris buffer (100 mM) containing MgCl2 (1 mM) and ZnCl2 (0.1 mM) at pH 7.0. The reaction was monitored by HPLC using an IBM C-18 column (3 µ, 4.5 x 100 mm) and 50% aqueous methanol as eluant (0.5 ml/min, monitored at 254 nm). […] Aqueous solutions of etoposide phosphate or etoposide thiophosphate were stable for at least 8 hours at room temperature and for several days at 4°C.
# [2] = system: Alkaline phosphatase; assay: Hydrolysis of etoposide phosphate prodrugs by AP or L6-AP conjugate (HPLC); conditions: for hydrolysis by alkaline phosphatase, relative rate: Figure 5
# [3] = system: H3347 tumor cells; assay: Clonogenic cytotoxicity (colony inhibition) assay; assay type: cell-based; conditions: Homo sapiens, 15 hours drug exposure, colonies counted 7-10 days later
# Method: The clonogenic cytotoxicity assay we used was the colony inhibition assay described by I. Hellstrom et al., "Colony Inhibition And Cytotoxicity Assays," in In Vitro Methods In Cell-Mediated Immunity, Bloom and Glade (ed.s), pp.- 409-14 (1971). The cells used to detect cytotoxicity were the H3347 tumor cells described above. Both the L6-AP and 96.5-AP conjugates were tested for their ability to convert prodrug into the free drug.
# Briefly, the H3347 cells (10^6/ml) were suspended in IMDM growth media (containing 10 µg/ml of each immunoconjugate based on antibody concentration) and incubated for 30 min at 37°C. The cells were washed twice, resuspended in IMDM, and the drug or prodrug in medium was added. Incubation at 37°C was continued for 15 hours. After washing twice, the cells were plated out and the number of colonies (>8 cells/colony) were counted 7-10 days later.
# [4] = system: H3347 tumor cells; assay: 3H-thymidine uptake assay on H3347 cells; assay type: cell-based, human
# [5] = system: H3347 tumors; assay: In vivo antitumor effect, conjugate/etoposide phosphate, s.c. H3347 tumors; set-up: species or system nude mice; conditions: for antitumor effect on tumor growth: Figure 11, conjugates i.p. 18-24 h prior to EP; for tolerability in the animals: nude mice, maximum tolerated doses; for RESPONSE complete / RESPONSE partial / RESPONSE progression / RESPONSE stable: number of 16 tumors in each group, 23 days after tumor implant
# Method: First, Balb/C nu/nu female mice (4-6 wk old) (obtained from Life Sciences, St. Petersburg, Florida) were injected with 10^7 H3347 tumor cells subcutaneously (s.c.) in the left and right hind flanks. The tumor cells were obtained from in vitro cultures that had been suspended by treatment for 2 min with trypsin (0.5 g/l) and EDTA (0.2 g/l). The cells were washed twice with IMDM and incubated for 1 h at 37°C in IMDM with 10% fetal calf serum. The cells were washed, suspended in PBS, and kept at 4°C prior to injection. Both the localization and therapy studies described herein were initiated when the tumors reached an average size of 225 mm^3.
# Therapy experiments were performed on nude mice that had s.c. tumors approximately 225 mm^3 in volume. The conjugates, L6-AP and 1F5-AP, were administered (i.p.) 18-24 h prior to treatment with EP. Tumor growth was compared to that in untreated mice and in mice treated with maximum tolerated doses of etoposide or EP alone.
# More particularly, a group of 8 nude mice with bilateral H3347 tumors was treated with either etoposide (0.2 ml containing 1.2 mg etoposide in 2:3 DMSO:H2O) or EP (0.2 ml containing 2 mg EP in H2O) alone or with L6-AP (0.1 ml containing 300 µg antibody in PBS) or 1F5-AP (0.1 ml containing 300 µg antibody in PBS) followed by EP treatment Each experiment contained a control group of mice that was untreated. Tumor volumes were estimated at various days post tumor implant, using the formula: ([(perpendicular width)^2 /2)] X longest length [formula]
# [6] = system: H2981 tumor cells
# [7] = Relative toxicities of MOH and MOP in mice; set-up: species or system Balb C nu/nu mice; conditions: mouse, in vivo, ip; for LD50: two equal doses spaced 4 days apart; for MTD: given in 4 equal doses over a 25 day period, read-out: total amounts well tolerated
# Method: Prior to investigating the in vivo antitumor activity of MOP in combination with the L6-AP conjugate the relative toxicities of the prodrug and its released active derivative, MOH, were determined in Balb C nu/nu mice. […] Total amounts of up to 40 mg/kg of MOH and 100 mg/kg of MOP were well tolerated if given in 4 equal doses over a 25 day period.
# [8] = system: H2981 tumor; assay: In vivo antitumor effect, conjugate/mitomycin prodrug and MOP/EP combinations, s.c. H2981 tumor; set-up: species or system nude Balb C nu/nu female mice; conditions: for antitumor activity in vivo: Figures 18 and 19, conjugates 18-24 h prior to prodrug; for time required to reach an average tumor volume of 750 mm^3: H2981 tumor, maximum tolerated doses
# Method: Therapy studies were then performed on nude Balb C nu/nu female mice (6 mice per treatment group) (4-6 wk old) obtained from Life Sciences (St. Petersburg, Fla.) that had been implanted (s.c., right hind flank) with a H2981 tumor obtained from in vivo sourcing. The experiments were run when the tumors reached approximately 100 mm^3 in volume. The L6-AP and 1F5-AP conjugates (0.1 ml containing 250 µg antibody in PBS) were each administered (i.p.) 18-24 h prior to treatment with MOP (0.2 ml containing 0.6 mg MOP in H2O). Tumor growth was compared to that observed in untreated mice and in mice treated with maximum tolerated doses of MOP (0.2 ml containing 0.6 mg MOP in H2O) or MOH (0.2 ml containing 0.2 mg MOH in H2O) alone.
# The prodrugs, EP and MOP, were prepared as described in Examples 1 and 2, respectively. Preparation of the L6-AP and 1F5-AP immunoconjugates is described in Example 1. The in vivo studies on nude mice were carried out as described in Examples 1 and 2 above. Thus, nude mice that had been implanted with a H2981 tumor were pre-exposed to the L6-AP or 1F5-AP conjugate 18-24 h prior to treatment with a combination of MOP/EP (0.2 ml containing 1 mg EP and 0.3 mg MOP in H2O). Tumor growth was compared to that observed in untreated mice and in mice treated with the MOP/EP combination alone.
# [9] = system: H2981 tumor cells; assay: cells; conditions: Homo sapiens
# [10] = system: calf intestinal or human placental AP; assay: Reactivity of MOP with AP (HPLC); assay type: biochemical; conditions: MOP 1 mM, AP 1 µg/ml, 100 mM Tris pH 7.2, room temperature
# Method: The MOP prodrug was then tested for its reactivity with AP. […] The course of the reaction was monitored by HPLC using a C-18 column (4.6 x 150 mm) and the following conditions: detection at 280 nm; 30-95% methanol in acetate buffer (100 mM, pH 5.2) over 8 min, re-equilibration after 15 min; 0.8 ml/min flow rate. Under these conditions, MMC eluted at 7.0 min, MOH eluted at 8.5 min, and MOP eluted 4.0 min. […] HPLC served to confirm that the corresponding alcohol, MOH, was formed. Under the reaction conditions used, the half life for hydrolysis of MOP was about 10 min and the reaction went to completion within 40 min.
# [11] = system: penicillin V amidase; assay: Hydrolysis of APO to adriamycin by PVA or L6-PVA conjugate (HPLC); assay type: biochemical, Fusarium oxysporum
# Method: The ability of the antibody-PVA conjugate, L6-PVA, to convert the novel prodrug, APO, to adriamycin was measured as follows: either a) PVA alone (final concentration:50 µg/ml), b) 100 µg/ml of the L6-PVA conjugate (final PVA concentration: 25 µg/ml) or c) 10 µg/ml of L6-PVA (final PVA concentration: 2.5 µg/ml) were added to a solution of APO (0.1 mM) in PBS. Each reaction was monitored by HPLC using a Phenominex C-18 column (3 µm, 4.5 x 100 mm) and a gradient elution of 20-60% tetrahydrofuran in water with 0.1% H3PO4 (1.0 ml/min, monitored at 495 nm). Under these conditions, the adriamycin eluted at 8.9 minutes and the APO eluted at 12.2 minutes.
# [12] = system: H2981 tumor cells; assay: 3H-thymidine uptake assay on H2981 cells, PVA conjugates with APO; assay type: cell-based; conditions: Homo sapiens; H2981 cells untreated with any conjugate
# Method: The in vitro cytotoxic effect of the antibody-PVA/ adriamycin prodrug combination of the invention toward H2981 tumor cells was measured using the ^3H-thymidine uptake assay described in Examples 1 and 2 above. Briefly, the H2981 tumor cells were plated into 96-well microtiter plates in IMDM (10,000 cells/well) and were allowed to attached for 18 h at 37°C. The antibody-PVA conjugates, L6-PVA or 1F5-PVA, were then added at a concentration of 10 µg/ml of antibody and the plates were incubated for 30 min at 4°C. The wells were then washed four times with IMDM and APO was added at varying concentrations in IMDM. After two h, the wells were again washed, IMDM was added and the cells were left for 18 h at 37°C. At that point, ^3H-thymidine was added (1 µCi per well) and after 6 h, the plates were frozen at -70°C to detach the cells. After thawing, the cells were harvested onto glass fiber filters. The incorporation of ^3H-thymidine was measured in a Beckman 3801 scintillation counter and compared to cells treated with APO or adriamycin (ADM) alone.
# [13] = by day 63, mitomycin derivatives (Table 3)
smiles,measurement,setting,value
"COc1cc(C2c3cc4c(cc3C(OC3OC5COC(C)OC5C(O)C3O)C3COC(=O)C23)OCO4)cc(OC)c1OP(O)(O)=S (stereo not drawn) [etoposide thiophosphate, 4'-disodium thiophosphate ester of etoposide]",stability of aqueous solutions,[1]; 4°C,several days
same,stability of aqueous solutions,[1]; room temperature,at least 8 hours
same,"hydrolysis by alkaline phosphatase, relative rate",[2],increased stability towards hydrolysis
"COc1cc(C2c3cc4c(cc3C(OC3OC5COC(C)OC5C(O)C3O)C3COC(=O)C23)OCO4)cc(OC)c1OP(=O)(O)O (stereo not drawn) [EP, 4'-disodium phosphate ester of etoposide]",stability of aqueous solutions,[1]; 4°C,several days
same,stability of aqueous solutions,[1]; room temperature,at least 8 hours
same,IC50,[3],5.8 µM
same,inhibition at 100 µM,"[4]; Homo sapiens, at 100 µM",35%
same,antitumor effect on tumor growth,[5],greater antitumor effect than seen with etoposide itself
same,tolerability in the animals,[5],less toxic to the animals
same,RESPONSE complete,[5],0
same,RESPONSE partial,[5],0
same,RESPONSE progression,[5],6
same,RESPONSE stable,[5],10
same,kill,"[6]; human, h2981 cells, 30 µM",20%
same,"hydrolysis by alkaline phosphatase, relative rate",[2],hydrolyzed by the enzyme more rapidly than the etoposide thiophosphate prodrug
same,phosphate hydrolysis in the absence of enzyme,"[2]; Tris buffer pH 7.0, no enzyme",no phosphate hydrolysis occurred
same,hydrolysis of the etoposide-4'-phosphate to etoposide,"[2]; within 5 min of the start, AP free or as L6-AP conjugate, final AP concentration 5 µg/ml, prodrug 0.1 mM, pH 7.0",at least 85 X
"CO[C@@]12[C@H](COC(N)=O)C3=C(C(=O)C(C)=C(NCCO)C3=O)N1C[C@@H]1N[C@@H]12 [MOH, 7-[(2-hydroxyethyl)amino]-9a-methoxymitosane, reference compound]",LD50,[7],45 mg/kg
same,MTD,[7],≥ 40 mg/kg
same,antitumor activity in vivo,[8],significant antitumor activities in vivo
same,time required to reach an average tumor volume of 750 mm^3,[8],45 days
same,TUMOR RESPONSES PROGRESSION,[8]; [13],6/6
same,IC50,[9],~1 µM
"CO[C@@]12[C@H](COC(N)=O)C3=C(C(=O)C(C)=C(NCCOP(=O)(O)O)C3=O)N1C[C@@H]1N[C@@H]12 [MOP, 7-(2'-aminoethyl phosphate)mitomycin]",time for the reaction to go to completion,[10],≤ 40 min
same,LD50,[7],90 mg/kg
same,MTD,[7],≤ 100 mg/kg
same,antitumor activity in vivo,[8],significant antitumor activities in vivo
same,time required to reach an average tumor volume of 750 mm^3,[8],63 days
same,TUMOR RESPONSES PROGRESSION,[8]; [13],4/5
same,TUMOR RESPONSES STABLE,[8]; [13],1/5
same,cell kill,"[6]; at 10 µM, H2981 cells",5%
"COc1cc([C@@H]2c3cc4c(cc3[C@@H](O[C@@H]3O[C@@H]5CO[C@@H](C)O[C@H]5[C@H](O)[C@H]3O)[C@H]3COC(=O)[C@H]23)OCO4)cc(OC)c1O [etoposide, reference compound]",IC50,[3],0.2 µM
same,toxicity relative to EP,[4],more than 100 fold
same,IC50,"[4]; Homo sapiens, 6 h drug exposure",1 µM
same,antitumor effect on tumor growth,[5],very little effect on tumor growth
same,tolerability in the animals,[5],higher doses were not well tolerated
same,RESPONSE complete,[5],0
same,RESPONSE partial,[5],0
same,RESPONSE progression,[5],12
same,RESPONSE stable,[5],4
same,IC50,[9],2 µM
"COc1cccc2c1C(=O)c1c(O)c3c(c(O)c1C2=O)C[C@@](O)(C(=O)CO)C[C@@H]3O[C@H]1C[C@H](NC(=O)COc2ccc(O)cc2)[C@H](O)[C@H](C)O1 [APO, N-(p-hydroxyphenoxyacetyl)adriamycin]",time to effect this level of hydrolysis (at least 80%),[11]; L6-PVA conjugate at 10 µg/ml (2.5 µg/ml of PVA),120 min
same,hydrolysis of APO to adriamycin,"[11]; within 40 minutes, PVA alone 50 µg/ml or L6-PVA conjugate 100 µg/ml",at least 80%
same,IC50,[12],2 µM
"CO[C@@]12[C@H](COC(N)=O)C3=C(C(=O)C(C)=C(N)C3=O)N1C[C@@H]1N[C@@H]12 [MMC, mitomycin C, reference compound]",IC50,[6],~1 µM

# From patent EP0540859B1, “Anthracycline prodrugs” (Bristol-Myers Squibb Company, priority 1987, dated 1989)
